According to patent publication US20260130933A1, “PHARMACEUTICAL COMPOSITION FOR PREVENTION OR TREATMENT OF NEPHROPATHY AND/OR DIABETES MELLITUS, COMPRISING ENAVOGLIFLOZIN” (DAEWOONG PHARMACEUTICAL CO., LTD., priority 2022, published 2026):

Assay: Example 3: phase 3 trial, enavogliflozin 0.3 mg vs dapagliflozin 10 mg once a day for 24 weeks added to metformin and gemigliptin in patients with type 2 diabetes (same endpoints, rescue drug)
Format: in vivo, human
Experimental: 1) when Metformin (≥1,000 mg/Day) was Administered at a Constant Dose for at Least 8 Weeks Prior to Pre-Visit (Pre-Screening) • Metformin (≥1,000 mg/day) and gemigliptin (50 mg/day) were co-administered during the 8-week stabilization period. […] 4) when Metformin (≥1,000 mg/Day) and Gemigliptin (50 mg/Day) were Co-Administered at Constant Doses for at Least 8 Weeks Prior to Pre-Visit (Prescreening) • Without a separate stabilization period, Pre-visit (pre-screening) was Visit 1 (screening).
Subjects who met the inclusion/exclusion criteria continued to receive metformin and gemigliptin while receiving a placebo of the clinical trial drug in a single-blind (subject-blinded) state for a 2-week run-in period.
Here, the randomized subjects were stratified according to the administration therapy (co-administration with two or less agents (one or two agents) or three or more agents) of a conventional hypoglycemic agent (before washout of another hypoglycemic agent) within 24 weeks prior to obtaining written informed consent and by an HbA1c value (<8% or ≥8%) at Visit 1 (screening) measured in the central laboratory.
The randomized subjects were administered two tablets of the clinical trial drug corresponding to each administration group once a day, and then visited the institution at weeks 6, 12, 18, and 24 during the 24-week administration period to conduct efficacy and safety assessments. In addition, during the clinical trial period, they were instructed to exercise regularly and control their diet without changing their daily life patterns.
• 1) Change in HbA1c at week 24 after administration of clinical trial drug compared to Visit 2 (randomization)
• 1) Change in HbA1c at each time point of weeks 6, 12, and 18 after administration of clinical trial drug compared to Visit 2 (randomization) • 2) Change in FPG at each time point of weeks 6, 12, 18, and 24 after administration of clinical trial drug compared to Visit 2 (randomization) • 3) Proportion of subjects achieving HbA1c<7% at each time point of weeks 6, 12, 18, and 24 after administration of clinical trial drug • 4) Proportion of subjects achieving HbA1c<6.5% at each time point of weeks 6, 12, 18, and 24 after administration of clinical trial drug • 5) Proportion of subjects achieving therapeutic response (HbA1c change (HbA1c at Visit 2—HbA1c at each evaluation time point)>0.5% or HbA1c<7% at each evaluation time point compared to Visit 2 (randomization)) at each time point of weeks 6, 12, 18, and 24 after administration of clinical trial drug • 6) Proportion of subjects achieving therapeutic response (HbA1c change (HbA1c at Visit 2—HbA1c at each evaluation time point)>0.7% or HbA1c<7% at each evaluation time point compared to Visit 2 (randomization)) at each time point of weeks 6, 12, 18, and 24 after administration of clinical trial drug • 7) Proportion of subjects achieving therapeutic response (HbA1c change (HbA1c at Visit 2—HbA1c at each evaluation time point)>1% or HbA1c<7% at each evaluation time point compared to Visit 2 (randomization)) at each time point of weeks 6, 12, 18, and 24 after administration of clinical trial drug

[1] = week 12, per-protocol set, enavogliflozin 0.3 mg, dapagliflozin 10 mg
[2] = week 18, modified per-protocol set 1, enavogliflozin 0.3 mg, dapagliflozin 10 mg
[3] = week 18, modified per-protocol set 2
[4] = week 18, modified per-protocol set 2, enavogliflozin 0.3 mg, dapagliflozin 10 mg
[5] = week 18, per-protocol set, enavogliflozin 0.3 mg, dapagliflozin 10 mg

## CCOc1ccc(Cc2cc([C@@H]3O[C@H](CO)[C@@H](O)[C@H](O)[C@H]3O)ccc2Cl)cc1 [Dapagliflozin, reference compound]
[1]
  Subjects achieving HbA1c target of <7%, %: 63.41%
  body weight, Median: 63.20 kg
Week 12, per-protocol set, response 1 = HbA1c change >0.5% or HbA1c <7%, enavogliflozin 0.3 mg, dapagliflozin 10 mg
  Subjects achieving therapeutic glycemic response 1, %: 89.43%
Week 12, per-protocol set, response 2 = HbA1c change >0.7% or HbA1c <7%, enavogliflozin 0.3 mg, dapagliflozin 10 mg
  Subjects achieving therapeutic glycemic response 2, %: 82.11%
Week 12, per-protocol set, response 3 = HbA1c change >1% or HbA1c <7%, enavogliflozin 0.3 mg, dapagliflozin 10 mg
  Subjects achieving therapeutic glycemic response 3, %: 73.98%
Week 18
  FPG change from baseline, LS mean (SE): −23.55(1.59) mg/dL
  HDL-C change from baseline, LS mean (SE): 3.42(0.62) mg/dL
  HOMA-IR change from baseline, LS mean (SE): −1.01(0.11)
  HOMA-β change from baseline, LS mean (SE): 4.49(2.22)
  HbA1c change from baseline, LS mean (SE): −0.75(0.04) % p
  LDL-C change from baseline, LS mean (SE): 1.38(1.59) mg/dL
  UACR change from baseline, LS mean (SE): −8.90(3.79) g/kg
  UGCR change from baseline, LS mean (SE): 45.40(2.27) mg/mg
  adiponectin change from baseline, LS mean (SE): 0.36(0.32) μg/mL
  body weight change from baseline, LS mean (SE): −3.01(0.23) kg
  diastolic blood pressure change from baseline, LS mean (SE): −2.42(0.68) mmHg
  fasting C-peptide change from baseline, LS mean (SE): −0.06(0.02) ng/mL
  leptin change from baseline, LS mean (SE): −1.06(0.51) ng/ml
  systolic blood pressure change from baseline, LS mean (SE): −5.16(0.88) mmHg
  total cholesterol change from baseline, LS mean (SE): 3.66(1.88) mg/dL
  triglyceride change from baseline, LS mean (SE): −12.39(4.34) mg/dL
[2]
  Change from baseline in HDL-C, ANCOVA LS mean: 3.42 mg/dL
  Change from baseline in HDL-C, Mean: 3.57 mg/dL
  Change from baseline in HDL-C, Median: 3.00 mg/dL
  Change from baseline in LDL-C, ANCOVA LS mean: 1.38 mg/dL
  Change from baseline in LDL-C, Mean: 0.93 mg/dL
  Change from baseline in LDL-C, Median: 1.50 mg/dL
  Change from baseline in total cholesterol, ANCOVA LS mean: 3.66 mg/dL
  Change from baseline in total cholesterol, Mean: 2.51 mg/dL
  Change from baseline in total cholesterol, Median: 1.00 mg/dL
  Change from baseline in triglycerides, ANCOVA LS mean: -12.39 mg/dL
  Change from baseline in triglycerides, Mean: -17.31 mg/dL
  Change from baseline in triglycerides, Median: -8.50 mg/dL
  Fasting HDL-C, Mean: 50.99 mg/dL
  Fasting HDL-C, Median: 51.00 mg/dL
  Fasting LDL-C, Mean: 78.33 mg/dL
  Fasting LDL-C, Median: 73.00 mg/dL
  Fasting total cholesterol, Mean: 146.31 mg/dL
  Fasting triglycerides, Mean: 115.18 mg/dL
  Fasting triglycerides, Median: 103.00 mg/dL
  fasting Total cholesterol, Median: 141.00 mg/dL
[3]
  Change from baseline in diastolic blood pressure, ANCOVA LS mean: −2.42 mmHg
  Change from baseline in diastolic blood pressure, Mean: −2.12 mmHg
  Change from baseline in diastolic blood pressure, Median: −2.00 mmHg
  Diastolic blood pressure, Mean: 71.75 mmHg
  Diastolic blood pressure, Median: 71.00 mmHg
[4]
  Change from baseline in systolic blood pressure, ANCOVA LS mean: −5.16 mmHg
  Change from baseline in systolic blood pressure, Mean: −4.63 mmHg
  Change from baseline in systolic blood pressure, Median: −4.00 mmHg
  Systolic blood pressure, Mean: 119.31 mmHg
  Systolic blood pressure, Median: 118.00 mmHg
Week 18, per-protocol set
  Adiponectin, Mean: 6.65 µg/mL
  Adiponectin, Median: 6.21 µg/mL
  Change from baseline in HOMA-IR, ANCOVA LS mean: −1.01
  Change from baseline in HOMA-IR, Mean: −1.00
  Change from baseline in HOMA-IR, Median: −0.75
  Change from baseline in HOMA-β, ANCOVA LS mean: 4.49
  Change from baseline in HOMA-β, Mean: 5.32
  Change from baseline in HOMA-β, Median: 2.20
  Change from baseline in UACR, ANCOVA LS mean: -8.90 g/kg
  Change from baseline in UACR, Mean: -8.84 g/kg
  Change from baseline in UACR, Median: 0.20 g/kg
  Change from baseline in UGCR, ANCOVA LS mean: 45.40 mg/mg
  Change from baseline in UGCR, Mean: 43.29 mg/mg
  Change from baseline in UGCR, Median: 41.28 mg/mg
  Change from baseline in adiponectin, ANCOVA LS mean: 0.36 µg/mL
  Change from baseline in adiponectin, Mean: 0.30 µg/mL
  Change from baseline in adiponectin, Median: 0.36 µg/mL
  Change from baseline in leptin, ANCOVA LS mean: -1.06 ng/mL
  Change from baseline in leptin, Mean: -1.36 ng/mL
  Change from baseline in leptin, Median: -0.75 ng/mL
  HOMA-IR (insulin resistance), Mean: 1.85
  HOMA-IR (insulin resistance), Median: 1.53
  HOMA-β (beta-cell function), Mean: 45.79
  HOMA-β (beta-cell function), Median: 36.80
  Leptin, Mean: 9.52 ng/mL
  Leptin, Median: 7.80 ng/mL
  UACR, Mean: 25.86 g/kg
  UACR, Median: 10.20 g/kg
  UGCR, Mean: 44.82 mg/mg
  UGCR, Median: 42.32 mg/mg
[5]
  Body weight, Mean: 64.37 kg
  Change from baseline in FPG, ANCOVA LS mean: -23.55 mg/dL
  Change from baseline in FPG, Mean: -24.80 mg/dL
  Change from baseline in FPG, Median: -19.00 mg/dL
  Change from baseline in HbA1c, ANCOVA LS mean: −0.75 % p
  Change from baseline in HbA1c, Mean: −0.79 % p
  Change from baseline in HbA1c, Median: −0.72 % p
  Change from baseline in body weight, ANCOVA LS mean: -3.01 kg
  Change from baseline in body weight, Mean: -2.84 kg
  Change from baseline in body weight, Median: -2.70 kg
  Change from baseline in fasting C-peptide, ANCOVA LS mean: -0.06 ng/mL
  Change from baseline in fasting C-peptide, Mean: -0.06 ng/mL
  Change from baseline in fasting C-peptide, Median: -0.07 ng/mL
  FPG, Mean: 115.72 mg/dL
  FPG, Median: 114.00 mg/dL
  Fasting C-peptide, Mean: 0.63 ng/mL
  Fasting C-peptide, Median: 0.60 ng/mL
  HbA1c, Mean: 7.04%
  HbA1c, Median: 6.97%
  Subjects achieving HbA1c target of <6.5%, (%): 12.20%
  Subjects achieving HbA1c target of <7%, %: 56.10%
